# According to ChEMBL document CHEMBL3603774, “Novel 5-functionalized-pyrazoles: Synthesis, characterization and pharmacological screening” (Bioorg Med Chem Lett, 2015):
# How the values were obtained:
# Bacillus cereus [1] = experiment: Antibacterial activity against Bacillus cereus MTCC 8372 at 50 ug/ml after 24 hrs by disc diffusion method; type: functional; settings: MTCC 8372, 24 h, read-out: IZ
# Bacillus cereus [2] = experiment: Antibacterial activity against Bacillus cereus MTCC 8372 at 100 ug/ml after 24 hrs by disc diffusion method; type: functional; settings: MTCC 8372, 24 h, read-out: IZ
# Staphylococcus aureus [3] = experiment: Antibacterial activity against Staphylococcus aureus MTCC 96 at 50 ug/ml after 24 hrs by disc diffusion method; type: functional; settings: MTCC 96, 24 h, read-out: IZ
# Staphylococcus aureus [4] = experiment: Antibacterial activity against Staphylococcus aureus MTCC 96 at 100 ug/ml after 24 hrs by disc diffusion method; type: functional; settings: MTCC 96, 24 h, read-out: IZ
# Escherichia coli [5] = experiment: Antibacterial activity against Escherichia coli MTCC 724 at 50 ug/ml after 24 hrs by disc diffusion method; type: functional; settings: MTCC 724, 24 h, read-out: IZ
# Escherichia coli [6] = experiment: Antibacterial activity against Escherichia coli MTCC 724 at 100 ug/ml after 24 hrs by disc diffusion method; type: functional; settings: MTCC 724, 24 h, read-out: IZ
# Klebsiella pneumoniae [7] = experiment: Antibacterial activity against Klebsiella pneumoniae MTCC 3384 at 50 ug/ml after 24 hrs by disc diffusion method; type: functional; settings: MTCC 3384, 24 h, read-out: IZ
# Klebsiella pneumoniae [8] = experiment: Antibacterial activity against Klebsiella pneumoniae MTCC 3384 at 100 ug/ml after 24 hrs by disc diffusion method; type: functional; settings: MTCC 3384, 24 h, read-out: IZ
# Aspergillus flavus [9] = experiment: Antifungal activity against Aspergillus flavus MTCC 873 at 50 ug/ml after 24 hrs by disc diffusion method; type: functional; settings: MTCC 873, 24 h, read-out: IZ
# Aspergillus flavus [10] = experiment: Antifungal activity against Aspergillus flavus MTCC 873 at 100 ug/ml after 24 hrs by disc diffusion method; type: functional; settings: MTCC 873, 24 h, read-out: IZ
# Aspergillus niger [11] = experiment: Antifungal activity against Aspergillus niger MTCC 281 at 50 ug/ml after 24 hrs by disc diffusion method; type: functional; settings: MTCC 281, 24 h, read-out: IZ
# Bacillus cereus [12] = experiment: Antibacterial activity against Bacillus cereus MTCC 8372 after 24 hrs by microdilution method; type: functional; settings: MTCC 8372, 24 h
# Bacillus cereus [13] = experiment: Antibacterial activity against Bacillus cereus MTCC 8372 assessed as concentration required to completely destroy test microorganisms after 24 hrs; type: functional; settings: MTCC 8372, 24 h
# Staphylococcus aureus [14] = experiment: Antibacterial activity against Staphylococcus aureus MTCC 96 after 24 hrs by microdilution method; type: functional; settings: MTCC 96, 24 h
# Staphylococcus aureus [15] = experiment: Antibacterial activity against Staphylococcus aureus MTCC 96 assessed as concentration required to completely destroy test microorganisms after 24 hrs; type: functional; settings: MTCC 96, 24 h
# Escherichia coli [16] = experiment: Antibacterial activity against Escherichia coli MTCC 724 after 24 hrs by microdilution method; type: functional; settings: MTCC 724, 24 h
# Escherichia coli [17] = experiment: Antibacterial activity against Escherichia coli MTCC 724 assessed as concentration required to completely destroy test microorganisms after 24 hrs; type: functional; settings: MTCC 724, 24 h
# Klebsiella pneumoniae [18] = experiment: Antibacterial activity against Klebsiella pneumoniae MTCC 3384 after 24 hrs by microdilution method; type: functional; settings: MTCC 3384, 24 h
# Klebsiella pneumoniae [19] = experiment: Antibacterial activity against Klebsiella pneumoniae MTCC 3384 assessed as concentration required to completely destroy test microorganisms after 24 hrs; type: functional; settings: MTCC 3384, 24 h
# Aspergillus flavus [20] = experiment: Antifungal activity against Aspergillus flavus MTCC 873 after 48 hrs by microdilution method; type: functional; settings: MTCC 873, 48 h
# Aspergillus flavus [21] = experiment: Antifungal activity against Aspergillus flavus MTCC 873 assessed as concentration required to completely destroy test microorganisms after 24 hrs; type: functional; settings: MTCC 873, 24 h
# Aspergillus niger [22] = experiment: Antifungal activity against Aspergillus niger MTCC 281 after 48 hrs by microdilution method; type: functional; settings: MTCC 281, 48 h
# Aspergillus niger [23] = experiment: Antifungal activity against Aspergillus niger MTCC 281 assessed as concentration required to completely destroy test microorganisms after 24 hrs; type: functional; settings: MTCC 281, 24 h
# Aspergillus niger [24] = experiment: Antifungal activity against Aspergillus niger MTCC 281 at 100 ug/ml after 24 hrs by disc diffusion method; type: functional; settings: MTCC 281, 24 h, read-out: IZ
# Alpha amylase = molecular target: T1, Alpha amylase (Homo sapiens, UniProt P0DUB6); experiment: Inhibition of alpha-amylase (unknown origin) using starch as substrate after 30 mins by spectrophotometer analysis
# T1 sequence (P0DUB6 whole entry): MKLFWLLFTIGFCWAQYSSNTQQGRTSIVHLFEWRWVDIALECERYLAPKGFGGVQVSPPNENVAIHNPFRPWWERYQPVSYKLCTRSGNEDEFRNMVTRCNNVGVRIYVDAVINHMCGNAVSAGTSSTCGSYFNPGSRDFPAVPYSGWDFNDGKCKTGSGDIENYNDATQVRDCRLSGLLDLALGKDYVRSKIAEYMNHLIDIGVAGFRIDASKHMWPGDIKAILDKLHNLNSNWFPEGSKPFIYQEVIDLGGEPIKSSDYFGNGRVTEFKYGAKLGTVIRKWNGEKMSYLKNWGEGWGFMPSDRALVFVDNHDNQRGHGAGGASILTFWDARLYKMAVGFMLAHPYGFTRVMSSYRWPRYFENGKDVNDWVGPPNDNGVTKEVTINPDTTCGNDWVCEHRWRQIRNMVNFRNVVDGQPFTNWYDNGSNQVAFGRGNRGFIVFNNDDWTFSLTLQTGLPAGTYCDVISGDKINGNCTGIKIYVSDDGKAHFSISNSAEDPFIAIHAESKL
# [25] = Inhibition of alpha-glucosidase (unknown origin) using p-nitrophenol glycoside as substrate after 30 mins by colorimetric analysis; set-up: species or system Homo sapiens
Compound,zone of inhibition at 50 µg/mL (Bacillus cereus [1]) [mm],zone of inhibition at 100 µg/mL (Bacillus cereus [2]) [mm],zone of inhibition at 50 µg/mL (Staphylococcus aureus [3]) [mm],zone of inhibition at 100 µg/mL (Staphylococcus aureus [4]) [mm],zone of inhibition at 50 µg/mL (Escherichia coli [5]) [mm],zone of inhibition at 100 µg/mL (Escherichia coli [6]) [mm],zone of inhibition at 50 µg/mL (Klebsiella pneumoniae [7]) [mm],zone of inhibition at 100 µg/mL (Klebsiella pneumoniae [8]) [mm],zone of inhibition at 50 µg/mL (Aspergillus flavus [9]) [mm],zone of inhibition at 100 µg/mL (Aspergillus flavus [10]) [mm],zone of inhibition at 50 µg/mL (Aspergillus niger [11]) [mm],MIC (Bacillus cereus [12]) [µg/mL],MBC (Bacillus cereus [13]) [µg/mL],MIC (Staphylococcus aureus [14]) [µg/mL],MBC (Staphylococcus aureus [15]) [µg/mL],MIC (Escherichia coli [16]) [µg/mL],MBC (Escherichia coli [17]) [µg/mL],MIC (Klebsiella pneumoniae [18]) [µg/mL],MBC (Klebsiella pneumoniae [19]) [µg/mL],MIC (Aspergillus flavus [20]) [µg/mL],also measured
CCOC(=O)c1c(-c2ccccc2)nn(-c2ccccc2)c1COc1cc(OC)c(C=O)c(OC)c1,6,10,8,10,15,30,10,19,10,12,14,40,200,40,200,25,160,20,150,50,MFC (Aspergillus flavus [21]): 215 µg/mL; MIC (Aspergillus niger [22]): 45 µg/mL; MFC (Aspergillus niger [23]): 190 µg/mL; zone of inhibition at 100 µg/mL (Aspergillus niger [24]): 11 mm; IC50 (Alpha amylase): 40 µg/mL; IC50 [25]: 35 µg/mL
CCOC(=O)c1c(-c2ccccc2)nn(-c2ccccc2)c1COCc1ccccc1,2,8,2,6,4,6,3,6,8,10,12,50,255,40,210,45,210,45,230,55,MFC (Aspergillus flavus [21]): 270 µg/mL; MIC (Aspergillus niger [22]): 45 µg/mL; MFC (Aspergillus niger [23]): 265 µg/mL; zone of inhibition at 100 µg/mL (Aspergillus niger [24]): 8 mm; IC50 (Alpha amylase): 45 µg/mL; IC50 [25]: 45 µg/mL
CCOC(=O)c1c(-c2ccccc2)nn(-c2ccccc2)c1Cn1cnc2cc(C)ccc21,8,11,6,12,8,12,9,11,16,21,12,50,220,45,205,40,205,45,240,40,MFC (Aspergillus flavus [21]): 270 µg/mL; MIC (Aspergillus niger [22]): 45 µg/mL; MFC (Aspergillus niger [23]): 165 µg/mL; zone of inhibition at 100 µg/mL (Aspergillus niger [24]): 24 mm; IC50 (Alpha amylase): 45 µg/mL; IC50 [25]: 45 µg/mL
